{"source": "paper PMC11645267", "about": "“Novel pharmacologic inhibition of lysine-specific demethylase 1 as a potential therapeutic for glioblastoma” (Cancer Gene Therapy, 2024)", "key": {"KINGS1": {"test_system": "KINGS1", "experiment": "Stemness marker expression (qPCR, western blot)", "assay_type": "cell-based", "conditions": "KINGS1, 5 μM, 96 h", "from_the_text": "Super-enhancers consist of enhancer clusters with abundant binding of transcription factors and are highly enriched with H3K27ac marks. The H3K4me2 increased regions included the MYC locus and H3K4me2 de novo regions comprised Nestin and SOX2 loci (Fig. 2F, Supplementary Fig. S5A). These regions were also identified as super-enhancers in GSCs using data from our previous study (Fig. 2F). Compared to the large increase in H3K4me2 in these regions, changes in H3K4me3 were subtle after S2172 treatment (only 2582 regions were acquired modification) (Fig. 2C). Increasing the me2/me3 ratio at H3K4 is associated with reduced gene expression. […]\n(§1) instructions. For GSC cells, the CellTiter-Glo 3D Viability Assay (Promega, Madison, WI, USA) was used to measure the living cells. All proliferation experiments were repeated […]\nTotal RNA from the cell lines was extracted using TRIzol (Thermo Fisher Scientific), followed by reverse-transcription using Prime Script RT Master Mix (Takara, Kusatsu, Japan). […]\nB. Western blot analysis of LSD1,MYC, Nestin, SOX2,and ACTB in same cells as shown in panel A. ACTB was used as a loading control. […] Quantification of signal intensities of the Western blot (right panel). […] Right panel: Quantification of band signal intensities from the Western blot. […] The ratio was calculated by dividing the cleaved PARP band intensity by the full-length PARP band intensity. […]"}, "GSC1228": {"test_system": "GSC1228", "experiment": "Stemness / differentiation marker expression (qPCR, western blot)", "assay_type": "cell-based", "conditions": "GSC1228, 5 μM, 96 h", "from_the_text": "Super-enhancers consist of enhancer clusters with abundant binding of transcription factors and are highly enriched with H3K27ac marks. The H3K4me2 increased regions included the MYC locus and H3K4me2 de novo regions comprised Nestin and SOX2 loci (Fig. 2F, Supplementary Fig. S5A). These regions were also identified as super-enhancers in GSCs using data from our previous study (Fig. 2F). Compared to the large increase in H3K4me2 in these regions, changes in H3K4me3 were subtle after S2172 treatment (only 2582 regions were acquired modification) (Fig. 2C). Increasing the me2/me3 ratio at H3K4 is associated with reduced gene expression.\nA mRNA expression of stem cell marker genes following 96 h treatment of GSC1228 with S2172 (5 μM). The y-axis indicates the expression change relative to DMSO-treated cells. Error bar indicates the SD. *P < 0.05. B Left panel, western blot analysis of MYC, Nestin, and SOX2 after treatment of GSC1228 with either DMSO or S2172 (5 μM) for 96 h. β-actin (ACTB) was used as the loading control. Right panel, Quantification of band signal intensities from the western blot. C mRNA expression of the differentiation marker gene, GFAP, following treatment of GSC1228 with S2172 (5 μM) for 96 h. The y-axis indicates the expression change relative to DMSO-treated cells. Error bar indicates the SD. D PARP cleavage ratio after treatment of GSC1228, GSC222, and GSC316 with S2172 (5 μM). The ratio was calculated by dividing the cleaved-PARP band intensity by the full length-PARP band intensity. Error bar indicates the SD. *P < 0.05. E Representative Western blot results of RAPR after treatment of GSC1228, GSC222, and GSC316 with either DMSO or S2172 (5 μM) for 96 h. The full length-PARP band (106 kDa) and cleaved PARP band (89 kDa) are shown. β-actin (ACTB) was used as the loading control. n = 4. […]\nas §1\nThe density of bands was quantified using ImageJ software (https://imagej.nih.gov/ij/). […]"}}, "data": [{"smiles": "NC1CCC(NC2CC2c2cc(F)cc(F)c2OCc2ccccc2)CC1", "note": "(stereo not shown) [S2172]", "values": [{"measurement": "stemness marker expression at mRNA and protein levels", "setting": "KINGS1", "result": "did not show significant changes"}, {"measurement": "mRNA level of stemness marker genes MYC, Nestin, SOX2", "setting": "GSC1228", "result": "significantly downregulated"}, {"measurement": "protein level of MYC, Nestin, SOX2", "setting": "GSC1228", "result": "tended to be downregulated"}, {"measurement": "transcription of astrocytic marker GFAP", "setting": "GSC1228", "result": "did not transcriptionally induce"}]}]}
